Measured values from US9433621B2, “Substituted pyridine and pyrimidine derivatives and their use in treating viral infections” (Merck Sharp & Dohme Corp., priority 2010, dated 2016).

What follows are molecules tested on HCV replicon (assay: Cell-Based HCV Replicon Assay). Conditions: Hepatitis C virus, 72 h, read-out: EC90 (uM) range.
Description: Cell-Based HCV Replicon Assay
To measure cell-based anti-HCV activity of the compounds of the present invention, replicon cells were seeded at 5000 cells/well in 96-well collagen I-coated Nunc plates in the presence of the compound of the invention. Various concentrations of a compound of the invention, typically in 10 serial 2-fold dilutions, were added to the assay mixture, the starting concentration of the compound ranging from 25 μM to 1 μM. The final concentration of DMSO was 0.5%, fetal bovine serum was 10%, in the assay media. Cells were harvested on day 3 by the addition of 1× cell lysis buffer (Ambion cat #8721). The replicon RNA level was measured using real time PCR (Taqman assay). The amplicon was located in 5B. The PCR primers were: 5B.2F, ATGGACAGGCGCCCTGA; 5B.2R, […]; the probe sequence was FAM-labeled CACGCCATGCGCTGCGG. GAPDH RNA was used as endogenous control and was amplified in the same reaction as NS5B (multiplex PCR) using primers and VIC-labeled probe recommended by the manufacturer (PE Applied Biosystem). The real-time RT-PCR reactions were run on ABI PRISM® 7900HT Sequence Detection System using the following program: 48′C for 30 min, 95′C for 10 min, 40 cycles of 95′C for 15 sec, 60′C for 1 min. The ΔCT values (CT5B-CTGAPDH) were plotted against the concentration of test compound and fitted to the sigmoid dose-response model using Graph Pad PRISM® software. EC50 was defined as the concentration of inhibitor necessary to achieve ΔCT=1 over the projected baseline; EC90 the concentration necessary to achieve ΔCT=3.2 over the baseline. Alternatively, to quantitate the absolute amount of replicon RNA, a standard curve was established by including serially diluted T7 transcripts of replicon RNA in the Taqman assay. All Taqman reagents were from PE Applied Biosystems. Such an assay procedure was described in detail in e.g. Malcolm et al., Antimicrobial Agents and Chemotherapy 50: 1013-1020 (2006).
HCV Replicon assay data for compounds of the invention that were tested were obtained using the above method.

| SMILES | EC90 |
| --- | --- |
| Cc1nccc2sc(-c3cnc(N[C@H](C)C4CCC4)nc3N[C@@H]3C[C@H](CO)[C@@H](O)[C@H]3O)nc12 [Example 4915] | > 1 µM |

Same assay, conditions: Hepatitis C virus, 72 h; Table IV; replicon cells, day 3, real time PCR; EC90 = concentration for ΔCT=3.2 over baseline; read-out: EC90

| SMILES | EC90 |
| --- | --- |
| CCOc1cc2cc(-c3c(C)nc(NCC4CC4)nc3N[C@@H]3C[C@H](C(C)(C)O)[C@@H](O)[C@H]3O)oc2c(C)n1 [Example 2511] | 0.13 µM |
| CO[C@H](C)CNc1nc(C)c(-c2nc3c(C)nccc3s2)c(N[C@@H]2C[C@H](C(C)(C)O)[C@@H](O)[C@H]2O)n1 [Example 3030] | 0.104 µM |
| CO[C@@H](C)CNc1nc(C)c(-c2nc3c(C)nccc3s2)c(N[C@@H]2C[C@H](C(C)(C)O)[C@@H](O)[C@H]2O)n1 [Example 3031] | 0.104 µM |
| Cc1nc(NCC2CC2)nc(N[C@@H]2C[C@H](C(F)F)[C@@H](O)[C@H]2O)c1-c1nc2c(C)nccc2s1 [Example 3036] | 0.044 µM |
| Cc1nc(NCC2CC2)nc(N[C@@H]2C[C@H](C(C)(F)F)[C@@H](O)[C@H]2O)c1-c1nc2c(C3CC3)nccc2s1 [Example 3056] | 0.007 µM |
| COC[C@@H](C)Nc1nc(C)c(-c2nc3c(C)nccc3s2)c(N[C@@H]2C[C@H](C(C)(C)O)[C@@H](O)[C@H]2O)n1 [Example 3137] | 0.118 µM |
| CCC(O)(CC)[C@H]1C[C@@H](Nc2nc(NCC3CC3)nc(C)c2-c2nc3c(C)nccc3s2)[C@H](O)[C@@H]1O [Example 3182] | 0.068 µM |
| Cc1nc(NCc2c(F)cc(F)cc2F)nc(N[C@@H]2C[C@H](C(C)(C)O)[C@@H](O)[C@H]2O)c1-c1nc2c(C)nccc2s1 [Example 3188] | 0.021 µM |
| Cc1nc(NCC2CC(F)(F)C2)nc(N[C@@H]2C[C@H](C(C)(C)O)[C@@H](O)[C@H]2O)c1-c1nc2c(C)nccc2s1 [Example 3239] | 0.01 µM |
| Cc1cc2sc(-c3c(C)nc(NCc4c(F)cc(F)cc4F)nc3N[C@@H]3C[C@H](CO)[C@@H](O)[C@H]3O)nc2c(C)n1 [Example 3438] | 0.011 µM |
| Cc1nc(NC2CCC2)nc(N[C@@H]2C[C@H](CS(C)(=O)=O)[C@@H](O)[C@H]2O)c1-c1nc2c(C3CC3)nccc2s1 [Example 3513] | 0.054 µM |
| Cc1nc(NCc2c(F)cccc2F)nc(N[C@@H]2C[C@H](CS(C)(=O)=O)[C@@H](O)[C@H]2O)c1-c1nc2c(C3CC3)nccc2s1 [Example 3538] | 0.007 µM |
| Cc1nc(NCC2CC2)nc(N[C@@H]2C[C@H](CC(C)(C)O)[C@@H](O)[C@H]2O)c1-c1nc2c(C)nccc2s1 [Example 3552] | 0.024 µM |
| Cc1nc(N[C@H](C)C2CC2)nc(N[C@@H]2C[C@H](CCO)[C@@H](O)[C@H]2O)c1-c1nc2c(C)nccc2s1 [Example 3561] | 0.023 µM |
| Cc1nc(NCc2c(F)cc(F)cc2F)nc(N[C@@H]2C[C@H](CS(C)(=O)=O)[C@@H](O)[C@H]2O)c1-c1nc2c(C3CC3)nccc2s1 [Example 3563] | 0.003 µM |
| Cc1nc(NCc2c(F)cccc2F)nc(N[C@@H]2C[C@H](CC#N)[C@@H](O)[C@H]2O)c1-c1nc2c(C3CC3)nccc2s1 [Example 3569] | 0.016 µM |
| Cc1nc(NCC2CC2)nc(N[C@@H]2C[C@H](CS(=O)(=O)c3ccncc3)[C@@H](O)[C@H]2O)c1-c1nc2c(C)nccc2s1 [Example 3580] | 0.012 µM |
| CCOCCNc1nc(C)c(-c2nc3c(C4CC4)nccc3s2)c(N[C@@H]2C[C@H](CS(=O)(=O)CC)[C@@H](O)[C@H]2O)n1 [Example 3721] | 0.024 µM |
| Cc1nc(NCC2CC2)nc(N[C@@H]2C[C@H](CS(=O)(=O)c3ccccc3)[C@@H](O)[C@H]2O)c1-c1nc2c(C3CC3)nccc2s1 [Example 3744] | 0.044 µM |
| Cc1nc(NCc2c(F)cccc2F)nc(N[C@@H]2C[C@H](CS(=O)(=O)c3cc(F)cc(F)c3)[C@@H](O)[C@H]2O)c1-c1nc2c(C)nccc2s1 [Example 3754] | 0.015 µM |
| CCNC(=O)C(O)[C@H]1C[C@@H](Nc2nc(N[C@H](C)COCC)nc(C)c2-c2nc3c(C)nccc3s2)[C@H](O)[C@@H]1O (stereo partly shown) [Example 4025] | 0.008 µM |
| Cc1nc(NCC(F)(F)C(F)(F)F)nc(N[C@@H]2C[C@H](C(C)(C)O)[C@@H](O)[C@H]2O)c1-c1nc2c(C)nccc2s1 [Example 4346] | 0.043 µM |
| Cc1nc(N[C@H](C)c2ccc(OC(F)(F)F)cc2)nc(N[C@@H]2C[C@H](CO)[C@@H](O)[C@H]2O)c1-c1nc2c(N)nccc2s1 [Example 4413] | 0.121 µM |
| Cc1nc(NCc2c(F)cccc2F)nc(N[C@@H]2C[C@H](C(C)(C)O)[C@@H](O)[C@H]2O)c1-c1nc2c(N)nccc2s1 [Example 4443] | 0.055 µM |
| Cc1nc(NC[C@H]2C[C@@H](c3ccccc3)C2)nc(N[C@@H]2C[C@H](CO)[C@@H](O)[C@H]2O)c1-c1nc2cnccc2s1 [Example 4512] | 0.019 µM |
| Cc1nc(NC[C@H]2C[C@H](c3ccccc3)C2)nc(N[C@@H]2C[C@H](CO)[C@@H](O)[C@H]2O)c1-c1nc2cnccc2s1 [Example 4513] | 0.016 µM |
| CCc1cc2sc(-c3c(C)nc(NCC(F)(F)F)nc3N[C@@H]3C[C@H](CO)[C@@H](O)[C@H]3O)nc2c(CC)n1 [Example 4706] | 0.045 µM |

Same assay, conditions: Hepatitis C virus, 72 h; Table V, cells printed as numeric bound instead of code; replicon cells, day 3, real time PCR; read-out: EC90 (uM) range

| SMILES | EC90 |
| --- | --- |
| C[C@@H](Nc1ncc(-c2nc3c(C4CC4)nccc3s2)c(N[C@@H]2C[C@H](CS(C)(=O)=O)[C@@H](O)[C@H]2O)n1)C1CC1 [Example 4917] | > 0.2 µM |
| CS(=O)(=O)C[C@H]1C[C@@H](Nc2nc(NC3CCC3)ncc2-c2nc3c(C4CC4)nccc3s2)[C@H](O)[C@@H]1O [Example 4922] | > 0.3 µM |

Same assay, conditions: Hepatitis C virus, 72 h; Table V, class codes; replicon cells, day 3, real time PCR; EC90 = concentration for ΔCT=3.2 over baseline; read-out: EC90 (uM) range

| SMILES | EC90 |
| --- | --- |
| Cc1nc(NCc2ccccc2F)nc(N[C@@H]2C[C@H](CO)[C@@H](O)[C@H]2O)c1-c1nc2c(C3CC3)nccc2s1 [Example 4901] | < 0.5 µM |
| Cc1nc(NCc2cccc(F)c2)nc(N[C@@H]2C[C@H](CO)[C@@H](O)[C@H]2O)c1-c1nc2c(C3CC3)nccc2s1 [Example 4902] | < 0.5 µM |
| CO[C@@H]1[C@@H](CO)C[C@@H](Nc2nc(NCC3CC3)nc(C)c2-c2nc3c(C)nccc3s2)[C@@H]1O [Example 4903] | < 0.5 µM |
| CO[C@@H]1[C@@H](CO)C[C@@H](Nc2nc(N[C@H](C)c3ccc(OC(F)(F)F)cc3)nc(C)c2-c2nc3c(C)nccc3s2)[C@@H]1O [Example 4904] | < 0.5 µM |
| CO[C@@H]1[C@@H](CO)C[C@@H](Nc2nc(NCC(F)(F)F)nc(C)c2-c2nc3c(C)nccc3s2)[C@@H]1O [Example 4905] | < 0.5 µM |
| CNc1nc(C)c(-c2nc3c(C)nccc3s2)c(N[C@@H]2C[C@H](CO)[C@@H](OC)[C@H]2O)n1 [Example 4906] | 0.5 to 5 µM |
| CO[C@@H]1[C@@H](CO)C[C@@H](Nc2nc(N)nc(C)c2-c2nc3c(C)nccc3s2)[C@@H]1O [Example 4907] | < 0.5 µM |
| Cc1cc2sc(-c3c(C)nc(NCc4c(F)cccc4F)nc3N[C@@H]3C[C@H](CO)[C@@H](O)[C@H]3O)nc2cn1 [Example 4908] | < 0.5 µM |
| Cc1cc2sc(-c3c(C)nc(NCC4CC4)nc3N[C@@H]3C[C@H](CO)[C@@H](O)[C@H]3O)nc2cn1 [Example 4909] | < 0.5 µM |
| Cc1cc2sc(-c3c(C)nc(NCC(F)(F)F)nc3N[C@@H]3C[C@H](CO)[C@@H](O)[C@H]3O)nc2cn1 [Example 4910] | < 0.5 µM |
| CCOCCNc1nc(C)c(-c2nc3cnc(C)cc3s2)c(N[C@@H]2C[C@H](CO)[C@@H](O)[C@H]2O)n1 [Example 4911] | < 0.5 µM |
| Cc1cc2sc(-c3c(C)nc(N[C@H](C)C4CCC4)nc3N[C@@H]3C[C@H](CO)[C@@H](O)[C@H]3O)nc2cn1 [Example 4912] | < 0.5 µM |
| Cc1ccc([C@@H](C)Nc2nc(C)c(-c3nc4cnc(C)cc4s3)c(N[C@@H]3C[C@H](CO)[C@@H](O)[C@H]3O)n2)cc1 [Example 4913] | < 0.5 µM |
| COCCNc1ncc(-c2nc3c(C4CC4)nccc3s2)c(N[C@@H]2C[C@H](CS(C)(=O)=O)[C@@H](O)[C@H]2O)n1 [Example 4916] | 0.5 to 5 µM |
| C[C@@H](Nc1ncc(-c2nc3c(C4CC4)nccc3s2)c(N[C@@H]2C[C@H](CS(C)(=O)=O)[C@@H](O)[C@H]2O)n1)C1CCC1 [Example 4918] | < 0.5 µM |
| CS(=O)(=O)C[C@H]1C[C@@H](Nc2nc(N)ncc2-c2nc3c(C4CC4)nccc3s2)[C@H](O)[C@@H]1O [Example 4919] | < 0.5 µM |
| CS(=O)(=O)C[C@H]1C[C@@H](Nc2nc(NCC3CC3)ncc2-c2nc3c(C4CC4)nccc3s2)[C@H](O)[C@@H]1O [Example 4920] | < 0.5 µM |
| C[C@@H](Nc1ncc(-c2nc3c(C4CC4)nccc3s2)c(N[C@@H]2C[C@H](CS(C)(=O)=O)[C@@H](O)[C@H]2O)n1)c1ccc(OC(F)(F)F)cc1 [Example 4921] | 0.5 to 5 µM |
| Cc1nc(N[C@H](C)C2CC2)nc(N[C@@H]2C[C@H](C(=O)N3CCOCC3)[C@@H](O)[C@H]2O)c1-c1nc2c(C3CC3)nccc2s1 [Example 4923] | < 0.5 µM |
